# From ChEMBL document CHEMBL1201862, “PubChem BioAssay data set” (2004)
#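 Results reflect a 48-hour exposure of cells in 96-well plates to compound at five concentrations. Abbreviation: GI50, concentration required for 50% inhibition of growth.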 Activity calls are given as the source filed them. Rule as the data show it: active = GI50 up to about 1.1 µM and inactive = higher.
# Experiments:
# Assay in all cases: NCI-60 cell line screen, 48 h
# A498 = tested on: A498
# OVCAR-5 = tested on: OVCAR-5
# HOP-92 = tested on: HOP-92
# MOLT-4 = tested on: MOLT-4
# M19-MEL = tested on: M19-MEL
# COLO 205 = tested on: COLO 205
# UACC-257 = tested on: UACC-257
# HCT-15 = tested on: HCT-15
# SNB-75 = tested on: SNB-75
# M14 = tested on: M14
# HL-60 = tested on: HL-60
# EKVX = tested on: EKVX
# CCRF-CEM = tested on: CCRF-CEM
# K562 = tested on: K562
# PC-3 = tested on: PC-3
# T47D = tested on: T47D
# MDA-MB-231 = tested on: MDA-MB-231
# MCF7 = tested on: MCF7
# DU-145 = tested on: DU-145
# NCI/ADR-RES = tested on: NCI/ADR-RES
SMILES,GI50 (A498),GI50 (OVCAR-5),GI50 (HOP-92),GI50 (MOLT-4),GI50 (M19-MEL),GI50 (COLO 205),GI50 (UACC-257),GI50 (HCT-15),GI50 (SNB-75),GI50 (M14),GI50 (HL-60),GI50 (EKVX),GI50 (CCRF-CEM),GI50 (K562),GI50 (PC-3),GI50 (T47D),GI50 (MDA-MB-231),GI50 (MCF7),GI50 (DU-145),GI50 (NCI/ADR-RES)
O=[N+]([O-])c1cccc(C2=NOC3C4CCC(C4)C23)c1 (stereo not given),> 100 µM (inactive),> 100 µM (inactive),> 100 µM (inactive),> 100 µM (inactive),> 100 µM (inactive),> 100 µM (inactive),> 100 µM (inactive),> 100 µM,> 100 µM (inactive),> 100 µM (inactive),,,,,,,,,,
Oc1cc(-c2ccccn2)nc2cccc(F)c12,,> 100 µM (inactive),> 100 µM (inactive),> 100 µM (inactive),> 100 µM (inactive),> 100 µM (inactive),> 100 µM (inactive),,51.4 µM (inactive),> 100 µM (inactive),> 100 µM (inactive),> 100 µM (inactive),> 100 µM (inactive),> 100 µM (inactive),,,,,,
COCCOCOC(CCCCO)c1cc(C)c(O[Si](C)(C)C(C)(C)C)c(C)c1 (stereo not given),12.4 µM (inactive),13.7 µM (inactive),,2.86 µM (inactive),5.11 µM (inactive),7.71 µM (inactive),3.01 µM (inactive),7.36 µM,10.6 µM (inactive),10.3 µM (inactive),1.59 µM (inactive),8.17 µM (inactive),4.39 µM (inactive),3.22 µM (inactive),,,,,,
O=C1C(OC(=O)c2ccccc2)=C(c2ccc(O)cc2)C(=O)C(OC(=O)c2ccccc2)=C1c1ccc(O)cc1,> 100 µM (inactive),> 100 µM (inactive),> 100 µM (inactive),36 µM (inactive),,> 100 µM (inactive),> 100 µM (inactive),> 100 µM,78.5 µM (inactive),> 100 µM (inactive),> 100 µM (inactive),> 100 µM (inactive),42.9 µM (inactive),> 100 µM (inactive),> 100 µM (inactive),> 100 µM (inactive),> 100 µM (inactive),> 100 µM (inactive),> 100 µM (inactive),> 100 µM (inactive)
CC1=NN(C(=O)Cc2ccccc2)C(=O)/C1=C\c1ccco1,,> 100 µM (inactive),,> 100 µM (inactive),> 100 µM (inactive),> 100 µM (inactive),> 100 µM (inactive),> 100 µM,> 100 µM (inactive),> 100 µM (inactive),> 100 µM (inactive),> 100 µM (inactive),> 100 µM (inactive),> 100 µM (inactive),,,,,,
CC(C)C(Br)C(=O)NCC(=O)O (stereo not given),> 100 µM (inactive),> 100 µM (inactive),> 100 µM (inactive),> 100 µM (inactive),,> 100 µM (inactive),> 100 µM (inactive),> 100 µM,> 100 µM (inactive),> 100 µM (inactive),0.245 µM (active),> 100 µM (inactive),> 100 µM (inactive),> 100 µM (inactive),> 100 µM (inactive),> 100 µM (inactive),> 100 µM (inactive),> 100 µM (inactive),> 100 µM (inactive),> 100 µM (inactive)
COC(=O)NC1=NNC(=O)c2ccccc2N1,> 100 µM (inactive),> 100 µM (inactive),> 100 µM (inactive),> 100 µM (inactive),,> 100 µM (inactive),> 100 µM (inactive),> 100 µM,> 100 µM (inactive),> 100 µM (inactive),> 100 µM (inactive),> 100 µM (inactive),> 100 µM (inactive),> 100 µM (inactive),> 100 µM (inactive),> 100 µM (inactive),> 100 µM (inactive),> 100 µM (inactive),> 100 µM (inactive),> 100 µM (inactive)
O=C(NCCCCCCNC(=O)c1cccc2ccccc12)Nc1cccc2ccccc12,> 100 µM (inactive),> 100 µM (inactive),> 100 µM (inactive),> 100 µM (inactive),,> 100 µM (inactive),> 100 µM (inactive),> 100 µM,> 100 µM (inactive),> 100 µM (inactive),> 100 µM (inactive),> 100 µM (inactive),> 100 µM (inactive),> 100 µM (inactive),> 100 µM (inactive),> 100 µM (inactive),> 100 µM (inactive),> 100 µM (inactive),> 100 µM (inactive),> 100 µM (inactive)
CC(=O)OCCOCCN1CCN(C2=C(Cl)C(=O)c3c(O)ccc(O)c3C2=O)CC1,1.86 µM (inactive),1.59 µM (inactive),0.294 µM (active),0.165 µM (active),,0.231 µM (active),1.02 µM (active),0.365 µM,2.06 µM (inactive),0.458 µM (active),0.0394 µM (active),1.67 µM (inactive),0.0662 µM (active),0.264 µM (active),1.51 µM (inactive),0.652 µM (active),0.397 µM (active),0.302 µM (active),1.88 µM (inactive),0.296 µM (active)
COC(=O)c1cc(C#N)[nH]c1-c1cc(Br)cs1,4.97 µM (inactive),16.3 µM (inactive),3.61 µM (inactive),17.9 µM (inactive),,14.3 µM (inactive),11.4 µM (inactive),15.1 µM,2.69 µM (inactive),14.3 µM (inactive),13.2 µM (inactive),16.1 µM (inactive),13.8 µM (inactive),20.3 µM (inactive),12.2 µM (inactive),2.13 µM (inactive),20.2 µM (inactive),7.24 µM (inactive),13.3 µM (inactive),13.4 µM (inactive)
O=C(O)CNS(=O)(=O)c1ccc(NCc2ccccc2)cc1,,> 100 µM (inactive),> 100 µM (inactive),> 100 µM (inactive),> 100 µM (inactive),> 100 µM (inactive),> 100 µM (inactive),> 100 µM,> 100 µM (inactive),> 100 µM (inactive),,> 100 µM (inactive),> 100 µM (inactive),> 100 µM (inactive),,,,,,
Cn1nnc2c(C(N)=S)ncn2c1=O,> 100 µM (inactive),> 100 µM (inactive),> 100 µM (inactive),> 100 µM (inactive),,> 100 µM (inactive),> 100 µM (inactive),> 100 µM,> 100 µM (inactive),> 100 µM (inactive),> 100 µM (inactive),> 100 µM (inactive),> 100 µM (inactive),> 100 µM (inactive),> 100 µM (inactive),> 100 µM (inactive),> 100 µM (inactive),> 100 µM (inactive),> 100 µM (inactive),> 100 µM (inactive)
NC(=O)C(Nc1c(Cl)cccc1Cl)c1cc2cc(Br)ccc2nc1Cl (stereo not given),> 100 µM (inactive),> 100 µM (inactive),37.7 µM (inactive),20.7 µM (inactive),,24.4 µM (inactive),83.2 µM (inactive),24.4 µM,> 100 µM (inactive),33 µM (inactive),28.4 µM (inactive),25.8 µM (inactive),33.2 µM (inactive),29.4 µM (inactive),38.9 µM (inactive),44.4 µM (inactive),44.1 µM (inactive),30.1 µM (inactive),> 100 µM (inactive),42.5 µM (inactive)
Cc1nc2ccccc2nc1-c1ccc(/N=[N+](\[O-])c2ccc(-c3nc4ccccc4nc3C)cc2)cc1,> 53.2 µM (inactive),> 100 µM (inactive),> 39.5 µM (inactive),> 100 µM (inactive),,> 100 µM (inactive),> 100 µM (inactive),> 100 µM,21 µM (inactive),> 96.2 µM (inactive),> 100 µM (inactive),> 100 µM (inactive),> 100 µM (inactive),> 100 µM (inactive),> 100 µM (inactive),> 100 µM (inactive),24.2 µM (inactive),> 100 µM (inactive),> 94.4 µM (inactive),> 64.9 µM (inactive)
CC(C)=CCC(O)C1=CC(=O)c2c(O)ccc(O)c2C1=O (stereo not given),1.96 µM (inactive),1.97 µM (inactive),0.641 µM (active),0.063 µM (active),,0.171 µM (active),1.5 µM (inactive),0.21 µM,5.04 µM (inactive),1.16 µM (inactive),0.0349 µM (active),1.54 µM (inactive),0.075 µM (active),0.191 µM (active),2.23 µM (inactive),0.39 µM (active),1.55 µM (inactive),0.557 µM (active),1.22 µM (inactive),2.05 µM (inactive)
COc1ccc(C(=O)Cc2c(C(=O)c3ccccc3)c3ccccc3n2C(=O)c2ccccc2)cc1,,> 100 µM (inactive),25.2 µM (inactive),25.6 µM (inactive),> 100 µM (inactive),> 100 µM (inactive),> 100 µM (inactive),46 µM,18.3 µM (inactive),> 100 µM (inactive),38.3 µM (inactive),,46.6 µM (inactive),51.3 µM (inactive),,,,,,
CC1CC(C)C(O)C(C2CC(CC(=O)NC3CCCCC3)CC(=O)O2)C1 (stereo not given),> 100 µM (inactive),> 100 µM (inactive),> 100 µM (inactive),> 100 µM (inactive),,> 100 µM (inactive),> 100 µM (inactive),> 100 µM,> 100 µM (inactive),> 100 µM (inactive),> 100 µM (inactive),> 100 µM (inactive),> 100 µM (inactive),> 100 µM (inactive),> 100 µM (inactive),> 100 µM (inactive),> 100 µM (inactive),> 100 µM (inactive),> 100 µM (inactive),> 100 µM (inactive)
